Measured values reported in patent publication US20180008563A1 (priority 2015, published 2018).
Like-named read-outs stand apart in the source and are kept apart here.

Legend:
[1] = system: epidemic diarrhea; conditions: diseased piglets, oral, a certain dose; cited from earlier work
[2] = system: porcine epidemic diarrhea; assay: Treatment of porcine epidemic diarrhea of newborn suckling piglets (piglets and lactating sows treated); format: in vivo, pigs; conditions: diseased newborn suckling piglets; taurine 100 g per sow per day, 0.2 g per piglet per day
Method: Treatment of the porcine epidemic diarrhea on newborn piglets with taurine was implemented by orally administering a taurine solution to diseased suckling piglets and administering taurine to lactating sows, that is, simultaneous treatment of both the suckling piglets and the lactating sows.
the administration by drenching/mixed-feeding was carried out on the day when the disease occurred in the suckling piglets, and a non-interrupted administration lasted for 3-10 days. Lactating sows: non-interrupted oral administration lasted for 5-10 days.
the administration by drenching or mixed-feeding was carried out on the day when the disease occurred in the suckling piglets. The administration by drenching: 2% taurine solution at a dosage of 1-5 mL per time and it was taken 2-6 times per day. The administration by mixed-feeding: 1-20 g/L of taurine solution was drunk freely. Lactating sows: each sow was administered with 5-500 g of taurine per day and the administration was in a single dose or in divided doses.
40 litters of diseased newborn suckling piglets and sows thereof were selected and randomly divided into two groups equivalently. Control group: conventional supportive therapy (fluid infusion+antibiotic therapy+atropine sulfate); experimental group: treatment with taurine.
II. […]

[3] = system: porcine epidemic diarrhea; assay: Prevention of porcine epidemic diarrhea of weaned piglets, care pigs and finishing pigs; format: in vivo; conditions: taurine 200 mg per kilogram of body weight per day
Method: Prevention of the porcine epidemic diarrhea on the weaned piglets, the care pigs and the finishing pigs with taurine was implemented by orally administering taurine to a swine herd, wherein the administration may be carried out by means of feeding in water or mixed feeding.
a preventative administration was carried out during an epidemic period of the disease, or in autumn, winter and spring when the temperature was low and changed greatly, that is, in the season when the porcine epidemic diarrhea frequently occurs. Generally, the administration can be carried out for a long-term. In consideration of the use-cost, the drug administration time is preferably 3-30 days, and more preferably, 7-14 days. The effect is subject to an obvious time-effect relationship.
0.005-2% by weight of taurine was added in daily-drinking water for the pigs to drink freely; or taurine accounting for 0.01-5% by weight of the feed was added thereto, which is equivalent to a dosage of 50-10000 mg per kilogram of body weight per day of taurine, and the administration was in a single dose or in divided doses. The effect is subject to an obvious quantity-effect relationship.
120 healthy weaned piglets, 120 healthy care pigs and 120 healthy finishing pigs were selected and randomly divided into two groups equivalently. Control group: conventional feeding; experimental group: conventional feeding+taurine (the dosage of taurine was 200 mg per kilogram of body weight per day).
I. The pharmaceutical composition according to Embodiment 6 was used for the prevention of porcine epidemic diarrhea of the newborn piglets, weaned piglets, care pigs and finishing pigs. Particularly, a mode of the administration for the newborn piglets was the same as the method in Embodiment 1, i.e. each pregnant sow was administered with 50 g of the pharmaceutical composition in Embodiment 6 per day, and the administration was in a single dose or in divided doses. […]

[4] = system: porcine epidemic diarrhea; assay: Treatment of porcine epidemic diarrhea of weaned piglets, care pigs and finishing pigs; format: in vivo; conditions: taurine 300 mg per kilogram of body weight per day
Method: Treatment of the porcine epidemic diarrhea on the weaned piglets, the care pigs and the finishing pigs with taurine was implemented by orally administering taurine to the pigs, wherein the administration may be carried out by means of feeding in water or mixed feeding.
the administration was carried out from the day of occurrence of the disease, and in consideration of the use-cost, the drug administration time is preferably 3-30 days, and more preferably 7-14 days. The effect is subject to an obvious time-effect relationship.
0.1-2% by weight of taurine was added in the daily-drinking water for the pigs to drink freely; or taurine accounting for 0.2-5% of the feed was added thereto, which is equivalent to a dosage of 100-10000 mg per kilogram of body weight per day of taurine, and the administration was in a single dose or in divided doses. The effect is subject to an obvious quantity-effect relationship.
60 diseased weaned piglets, 60 diseased care pigs and 60 diseased finishing pigs were selected, and were randomly divided into two groups equivalently. Control group: conventional supportive therapy (fluid infusion+antibiotic therapy+atropine sulfate); experimental group: treatment with taurine (the dosage of taurine was 300 mg per kilogram of body weight per day).
II. The pharmaceutical composition according to Embodiment 6 was used for the treatment of porcine epidemic diarrhea of the newborn piglets, weaned piglets, care pigs and finishing pigs. A mode of the administration for the newborn piglets was the same as the method in Embodiment 2, i.e. the administration by drenching and/or mixed-feeding was carried out on the day when the disease occurred in the suckling piglets. The administration by drenching: a solution with a mass concentration of 5% was prepared from the pharmaceutical composition in Embodiment 6 with a dosage of 2-4 mL per time and it was taken 2-6 times per day. The administration by mixed-feeding: 4 g/L of the solution was drunk freely. […]

[5] = system: porcine transmissible gastroenteritis; format: in vivo, pigs
[6] = system: rotavirus diarrhea; assay: Treatment of rotavirus diarrhea; format: in vivo, pigs
[7] = system: pseudorabies viral diarrhea; format: in vivo, pigs
[8] = system: PEDV; conditions: Kim et al., Virus Research (2013); cited from earlier work
[9] = care pigs, taurine dosage as in Embodiment 4 (300 mg per kilogram of body weight per day)
[10] = newborn piglets, taurine dosage as in Embodiment 2 (100 g per sow per day, 0.2 g per piglet per day)
[11] = weaned piglets, taurine dosage as in Embodiment 4 (300 mg per kilogram of body weight per day)

povidone iodine
improvement of survival rate [1]: 5-10% | prognosis of survived suckling piglets [1]: unfavourable prognosis

NCCS(=O)(=O)O [taurine, β-aminoethanesulfonic acid]
Prognosis [2]: Good | Prognosis ([3]; care pigs): Excellent | Prognosis ([3]; finishing pigs): Excellent | Prognosis ([3]; weaned piglets): Excellent | Prognosis ([4]; diseased care pigs): Good | Prognosis ([4]; diseased finishing pigs): Good | Prognosis ([4]; diseased weaned piglets): Good | Prognosis [5, 9]: Good | Prognosis ([5]; finishing pigs, taurine dosage as in Embodiment 4 (300 mg per kilogram of body weight per day)): Good | Prognosis [5, 10]: Good | Prognosis [5, 11]: Good | Prognosis [6, 9]: Good | Prognosis [6, 10]: Good | Prognosis [6, 11]: Good | Prognosis [7, 9]: General | treatment effect on the pseudorabies viral diarrhea ([7]; summary in text of Table 5): no treatment effect

NC(=O)c1ncn([C@@H]2O[C@H](CO)[C@@H](O)[C@H]2O)n1 [Ribavirin]
inhibition of replication of PEDV [8]: capable of inhibiting replication of PEDV
